These are literature values, as cited in PMC11758220, “Identification of a Privileged Scaffold for Inhibition of Sterol Transport Proteins through the Synthesis and Ring Distortion of Diverse, Pseudo-Natural Products” (ACS Central Science, 2025).

The data set addresses T1, STARD5 (Homo sapiens, UniProt Q9NSY2).
T1 construct: STARD5(6-213); host or cells: E. coli BL21(DE3)
T1 sequence (Q9NSY2 6-213): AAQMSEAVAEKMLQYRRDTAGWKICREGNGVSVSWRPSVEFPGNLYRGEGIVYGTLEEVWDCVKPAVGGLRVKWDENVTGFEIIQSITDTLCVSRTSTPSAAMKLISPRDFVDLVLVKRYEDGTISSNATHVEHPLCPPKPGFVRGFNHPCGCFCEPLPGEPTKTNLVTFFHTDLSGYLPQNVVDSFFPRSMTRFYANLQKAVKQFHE
On the set-up: method as in Depta et al.[43]. As to conditions: data reproduced; ref Depta et al.[43]; read-out: STARD5 Kd,app (DSF); cited from earlier work.

For `CCN(CC)CCO[C@H]1CC[C@@]2(C)C(=CC[C@@H]3[C@@H]2CC[C@]2(C)C(=O)CC[C@@H]32)C1` [Compound U18666A, reference compound], the Kd was over 30 µM.
